Measurements published in ChEMBL document CHEMBL3745631, “Discovery of highly potent and selective Bruton's tyrosine kinase inhibitors: Pyridazinone analogs with improved metabolic stability” (Bioorg Med Chem Lett, 2016).

What was measured:
Liver microsome [1] = assay: Intrinsic clearance in human liver microsomes at 1 uM by LC-MS/MS analysis in absence of NADPH; assay type: ADME
Liver microsome [2] = assay: Intrinsic clearance in human liver microsomes at 1 uM by LC-MS/MS analysis in presence of NADPH; assay type: ADME
[3] = biological target: Tyrosine-protein kinase BTK (Mus musculus, UniProt P35991); assay: Inhibition of BTK in Balb/c mouse B cells assessed as inhibition of anti-IgM-stimulated CD86 expression by flow cytometry; assay type: cell-based
Chain of Tyrosine-protein kinase BTK (Mus musculus, UniProt P35991) (P35991 whole entry): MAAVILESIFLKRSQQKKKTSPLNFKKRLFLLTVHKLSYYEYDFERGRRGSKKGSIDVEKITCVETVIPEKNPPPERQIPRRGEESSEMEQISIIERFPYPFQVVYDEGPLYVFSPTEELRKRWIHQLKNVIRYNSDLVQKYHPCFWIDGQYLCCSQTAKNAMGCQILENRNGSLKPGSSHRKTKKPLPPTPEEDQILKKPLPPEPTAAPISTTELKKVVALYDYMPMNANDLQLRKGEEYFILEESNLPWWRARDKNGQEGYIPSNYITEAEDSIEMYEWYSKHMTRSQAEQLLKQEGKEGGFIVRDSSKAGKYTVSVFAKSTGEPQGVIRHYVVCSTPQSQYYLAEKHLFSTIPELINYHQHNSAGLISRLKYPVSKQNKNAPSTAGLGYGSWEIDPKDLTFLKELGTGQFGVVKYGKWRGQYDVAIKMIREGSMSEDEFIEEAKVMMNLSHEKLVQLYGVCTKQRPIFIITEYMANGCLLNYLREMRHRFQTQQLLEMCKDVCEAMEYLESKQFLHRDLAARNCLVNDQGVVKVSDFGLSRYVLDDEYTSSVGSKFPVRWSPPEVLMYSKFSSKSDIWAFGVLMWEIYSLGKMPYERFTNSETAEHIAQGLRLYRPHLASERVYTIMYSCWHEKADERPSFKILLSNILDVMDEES

Hepatocyte = assay: Intrinsic clearance in human hepatocytes at 1 uM by LC-MS/MS analysis; assay type: ADME, cell-based
[4] = biological target: Tyrosine-protein kinase BTK (Homo sapiens, UniProt Q06187); assay: Inhibition of BTK (unknown origin) by Lanthascreen assay
Chain of Tyrosine-protein kinase BTK (Homo sapiens, UniProt Q06187) (Q06187 whole entry): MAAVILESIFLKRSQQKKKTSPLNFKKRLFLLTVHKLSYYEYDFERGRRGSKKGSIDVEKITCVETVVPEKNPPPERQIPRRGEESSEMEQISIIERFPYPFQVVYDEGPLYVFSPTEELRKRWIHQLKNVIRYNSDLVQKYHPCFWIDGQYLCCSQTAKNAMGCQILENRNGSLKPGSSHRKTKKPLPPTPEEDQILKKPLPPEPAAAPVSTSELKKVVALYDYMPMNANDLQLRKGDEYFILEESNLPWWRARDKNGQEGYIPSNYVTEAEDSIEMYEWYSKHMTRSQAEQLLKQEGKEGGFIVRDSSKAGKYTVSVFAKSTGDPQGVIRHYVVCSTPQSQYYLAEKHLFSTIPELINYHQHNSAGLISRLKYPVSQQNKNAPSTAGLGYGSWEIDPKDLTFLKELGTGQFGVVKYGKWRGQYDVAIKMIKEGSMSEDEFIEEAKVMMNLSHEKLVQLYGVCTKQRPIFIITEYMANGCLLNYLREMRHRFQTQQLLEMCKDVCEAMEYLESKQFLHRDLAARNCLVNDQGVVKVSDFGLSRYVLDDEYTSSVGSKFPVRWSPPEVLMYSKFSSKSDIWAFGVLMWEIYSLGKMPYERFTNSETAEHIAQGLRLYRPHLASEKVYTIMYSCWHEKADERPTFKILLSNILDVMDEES

CN1CCN(C)C(c2ccc(Nc3nc(-c4ccc(F)c(NC(=O)c5cc6c(s5)CCCC6)c4)cn(C)c3=O)cc2)C1=O (stereo in doubt; 8)
CLH (Liver microsome [1]): 6 mL/min/kg

CN1CCN(C)C(c2ccc(Nc3nc(-c4ccc(F)c(NC(=O)c5cc6c(s5)CCCC6)c4)cn(C)c3=O)cc2)C1=O (stereo in doubt; 7)
CLH (Liver microsome [1]): < 6 mL/min/kg

Cc1ccc(-c2cn(C)c(=O)c(Nc3ccc(C4C(=O)N(C)CCN4C)cc3)n2)c(C)c1NC(=O)c1cc2c(s1)CCCC2 (racemic)
CLH (Liver microsome [1]): < 6 mL/min/kg

Cc1c(-c2cn(C)c(=O)c(Nc3ccc(C4C(=O)N(C)CCN4C)cc3)n2)ccc(F)c1NC(=O)c1cc2c(s1)CCCC2 (stereo in doubt; 14)
CLH (Liver microsome [1]): < 6 mL/min/kg

Cc1c(NC(=O)c2cc3ccccc3s2)cccc1-c1cc(Nc2cc3n(n2)CCN(C)C3)c(=O)[nH]n1
CLH (Liver microsome [2]): > 15 mL/min/kg
CLH (Liver microsome [1]): > 15 mL/min/kg
IC50 [3]: 0.041 µM

Cc1c(-c2cn(C)c(=O)c(Nc3ccc(C4C(=O)N(C)CCN4C)cc3)n2)ccc(F)c1NC(=O)c1cc2c(s1)CCCC2 (stereo in doubt; 13)
CLH (Liver microsome [1]): 6 mL/min/kg

Cc1c(-c2cc(Nc3cc4n(n3)CCN(C)C4)c(=O)[nH]n2)ccc(F)c1NC(=O)c1cc2cccnc2s1
CLH (Liver microsome [2]): 6 mL/min/kg
CLH (Liver microsome [1]): 6 mL/min/kg
IC50 [3]: 0.74 µM

CN1CCN(C)C(c2ccc(Nc3nc(-c4cccc(NC(=O)c5cc6c(s5)CCCC6)c4Cl)cn(C)c3=O)cc2)C1=O (racemic)
CLH (Liver microsome [1]): > 15 mL/min/kg

CN1CCN(C)C(c2ccc(Nc3nc(-c4ccc(F)c(NC(=O)c5cc6c(s5)CCCC6)c4F)cn(C)c3=O)cc2)C1=O (configuration not stated)
CLH (Liver microsome [1]): 6 mL/min/kg

CN1CCn2nc(Nc3cc(-c4ccc(F)c(NC(=O)c5cc6ccccc6s5)c4)n[nH]c3=O)cc2C1
CLH (Liver microsome [2]): > 15 mL/min/kg
CLH (Hepatocyte): > 15 mL/min/kg
CLH (Liver microsome [1]): < 6 mL/min/kg
IC50 [3]: 0.05 µM

Cc1c(NC(=O)c2cc3c(s2)CCCC3)cccc1-c1cn(C)c(=O)c(Nc2ccc([C@@H]3C(=O)N(C)CCN3C)cc2)n1
CLH (Liver microsome [1]): > 15 mL/min/kg

CN1CCN(C)C(c2ccc(Nc3nc(-c4ccc(Cl)c(NC(=O)c5cc6c(s5)CCCC6)c4Cl)cn(C)c3=O)cc2)C1=O (racemic)
CLH (Liver microsome [1]): 6 mL/min/kg

Cc1ccc(-c2cc(Nc3cc4n(n3)CCN(C)C4)c(=O)[nH]n2)c(C)c1NC(=O)c1cc2ccccc2s1
CLH (Liver microsome [2]): > 15 mL/min/kg
CLH (Liver microsome [1]): < 6 mL/min/kg
IC50 [3]: 0.387 µM

CN1CCN(C)C(c2ccc(Nc3nc(-c4ccc(C#N)c(NC(=O)c5cc6c(s5)CCCC6)c4)cn(C)c3=O)cc2)C1=O (racemic)
CLH (Liver microsome [1]): < 6 mL/min/kg

CN1CCN(C)C(c2ccc(Nc3nc(-c4ccc(Cl)c(NC(=O)c5cc6c(s5)CCCC6)c4F)cn(C)c3=O)cc2)C1=O (configuration not stated)
CLH (Liver microsome [1]): < 6 mL/min/kg

Cc1ccc(-c2cn(C)c(=O)c(Nc3ccc([C@@H]4C(=O)N(C)CCN4C)cc3)n2)c(F)c1NC(=O)c1cc2c(s1)CCCC2
CLH (Liver microsome [1]): < 6 mL/min/kg

CN1CCN(C)C(c2ccc(Nc3nc(-c4cccc(NC(=O)c5cc6c(s5)CCCC6)c4F)cn(C)c3=O)cc2)C1=O (racemic)
CLH (Liver microsome [1]): > 15 mL/min/kg

Cc1c(-c2cc(Nc3cc4n(n3)CCN(C)C4)c(=O)[nH]n2)ccc(F)c1NC(=O)c1ccc(C(C)(C)C)cc1
CLH (Liver microsome [2]): > 15 mL/min/kg
IC50 [4]: 0.004 µM
CLH (Hepatocyte): 6 mL/min/kg
CLH (Liver microsome [1]): 6 mL/min/kg
IC50 [3]: 0.054 µM

Cc1c(-c2cc(Nc3cc4n(n3)CCN(C)C4)c(=O)[nH]n2)ccc(F)c1NC(=O)c1cc2ncccc2s1
CLH (Liver microsome [2]): 6 mL/min/kg
CLH (Hepatocyte): 6 mL/min/kg
CLH (Liver microsome [1]): 6 mL/min/kg
IC50 [3]: 0.68 µM

Cc1ccc(-c2cc(Nc3cc4n(n3)CCN(C)C4)c(=O)[nH]n2)c(F)c1NC(=O)c1cc2ccccc2s1
CLH (Liver microsome [2]): 6 mL/min/kg
IC50 [4]: 0.011 µM
CLH (Liver microsome [1]): 6 mL/min/kg
IC50 [3]: 0.2 µM

Cc1c(-c2cn(C)c(=O)c(Nc3ccc(C4C(=O)N(C)CCN4C)cc3)n2)ccc(Cl)c1NC(=O)c1cc2c(s1)CCCC2 (racemic)
CLH (Liver microsome [1]): 6 mL/min/kg

Cc1ccc(-c2cn(C)c(=O)c(Nc3ccc([C@H]4C(=O)N(C)CCN4C)cc3)n2)c(F)c1NC(=O)c1cc2c(s1)CCCC2
CLH (Liver microsome [1]): < 6 mL/min/kg

CN1CCn2nc(Nc3cc(-c4ccc(F)c(NC(=O)c5cc6ccccc6s5)c4F)n[nH]c3=O)cc2C1
CLH (Liver microsome [2]): > 15 mL/min/kg
CLH (Hepatocyte): 6 mL/min/kg
IC50 [3]: 0.018 µM

CN1CCN(C)C(c2ccc(Nc3nc(-c4cccc(NC(=O)c5cc6c(s5)CCCC6)c4)cn(C)c3=O)cc2)C1=O (racemic)
CLH (Liver microsome [1]): > 15 mL/min/kg

CN1CCN(C)C(c2ccc(Nc3nc(-c4ccc(Cl)c(NC(=O)c5cc6c(s5)CCCC6)c4)cn(C)c3=O)cc2)C1=O (racemic)
CLH (Liver microsome [1]): 6 mL/min/kg

Cc1ccc(-c2cn(C)c(=O)c(Nc3ccc(C4C(=O)N(C)CCN4C)cc3)n2)c(Cl)c1NC(=O)c1cc2c(s1)CCCC2 (configuration not stated)
CLH (Liver microsome [1]): < 6 mL/min/kg

Cc1c(-c2cc(Nc3cc4n(n3)CCN(C)C4)c(=O)[nH]n2)ccc(F)c1NC(=O)c1cnc(C(C)(C)C)cn1
CLH (Liver microsome [2]): 6 mL/min/kg
IC50 [4]: 0.004 µM
CLH (Hepatocyte): 6 mL/min/kg
CLH (Liver microsome [1]): 6 mL/min/kg
IC50 [3]: 0.09 µM
